These results are taken from patent US20170088520A1, “DEUBIQUITINASE INHIBITORS” (PharmAkea, Inc., priority 2014, published 2017).

Some results are limits rather than exact numbers.

The target of experiment [1] is T1, DUB activity in cells (NCI-H929, Z138, MM.1S, A375) (Homo sapiens, UniProt Q93008).
T1 construct: endogenous in cells; host or cells: NCI-H929, Z138, MM.1S, A375
Kind of experiment: HA-Ubiquitin-Vinylsulfone (HA-Ub-VS) cell labeling assay. It counts as cell-based. Particulars: compound tested at 5 μM; HA-Ub-VS labeling of USP9x in cells. Summed up: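 NCI-H929, Z138, MM.1S or A375 cells (1–2×10^6) treated 2–6 h at 37 °C with compound in 0.5% DMSO, here 5 μM. Lysates labeled with HA-Ub-VS for 15–60 min at 37 °C. Labeled DUBs resolved by SDS-PAGE and quantified by anti-HA and anti-β-actin immunoblot with infrared detection.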

In experiment [2] the test system is MM.1S myeloma tumor cells. Kind of experiment: In vivo tumor growth assay (xenograft model). Particulars: SCID Beige mice injected with MM.1S myeloma tumor cells; 15 mpk three times per week. The procedure: Example B-3: In Vivo Tumor Growth Assay
A xenograft model is used to test efficacy of compounds in inhibiting tumor growth. Briefly, 1×10^6-2×10^7 tumor cell suspensions (Z138, A375, MM.1S, VCaP) are injected subcutaneously into the flank regions of mice (SCID, NSG, nude) in an equal volume of matrigel. Tumor volumes are measured using calipers and when the tumor volumes are ˜100 mm^3, test compound is administered every 1-3 days by oral gavage or by injection (intraperitoneal, intravenous, subcutaneous) until tumor volumes of the vehicle treated animals are ˜1000-2000 mm^3. Inhibition of primary tumor growth is evident as a significant decrease in tumor volume relative to the vehicle treated mice.
Following the above protocol using SCID Beige mice injected with MM.1S myeloma tumor cells and dosing with Compound 74 at 15 mpk three times per week, an approximately 50% reduction in tumor volume was observed

Experiment [3] has as its system PARP cleavage in cells (NCI-H929, Z138, MM.1S, A-375). Kind of experiment: Analysis of PARP cleavage by Western blotting. The class given is cell-based. The note with it: compound tested at 5 μM; Western blot. Summed up: (§1)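 NCI-H929, Z138, MM.1S and A-375 cells were treated with compounds at 5 μM, and lysates were Western blotted with anti-Mcl-1 and anti-PARP antibodies, quantified by infrared fluorescence. Activity is a significant drop in Mcl-1 and the appearance of cleaved PARP, each relative to vehicle-treated cells.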
Background: In western blotting, separated proteins are transferred to a membrane and probed.

The test system of experiment [4] is Mcl-1 expression in cells (NCI-H929, Z138, MM.1S, A-375). Kind of experiment: Analysis of Mcl-1 expression by Western blotting. It counts as cell-based. Particulars: compound tested at 5 μM; Western blot. Summed up: as §1

The term inhibition denotes the relative decrease from the control value, in per cent.

T1 sequence (Q93008 whole entry): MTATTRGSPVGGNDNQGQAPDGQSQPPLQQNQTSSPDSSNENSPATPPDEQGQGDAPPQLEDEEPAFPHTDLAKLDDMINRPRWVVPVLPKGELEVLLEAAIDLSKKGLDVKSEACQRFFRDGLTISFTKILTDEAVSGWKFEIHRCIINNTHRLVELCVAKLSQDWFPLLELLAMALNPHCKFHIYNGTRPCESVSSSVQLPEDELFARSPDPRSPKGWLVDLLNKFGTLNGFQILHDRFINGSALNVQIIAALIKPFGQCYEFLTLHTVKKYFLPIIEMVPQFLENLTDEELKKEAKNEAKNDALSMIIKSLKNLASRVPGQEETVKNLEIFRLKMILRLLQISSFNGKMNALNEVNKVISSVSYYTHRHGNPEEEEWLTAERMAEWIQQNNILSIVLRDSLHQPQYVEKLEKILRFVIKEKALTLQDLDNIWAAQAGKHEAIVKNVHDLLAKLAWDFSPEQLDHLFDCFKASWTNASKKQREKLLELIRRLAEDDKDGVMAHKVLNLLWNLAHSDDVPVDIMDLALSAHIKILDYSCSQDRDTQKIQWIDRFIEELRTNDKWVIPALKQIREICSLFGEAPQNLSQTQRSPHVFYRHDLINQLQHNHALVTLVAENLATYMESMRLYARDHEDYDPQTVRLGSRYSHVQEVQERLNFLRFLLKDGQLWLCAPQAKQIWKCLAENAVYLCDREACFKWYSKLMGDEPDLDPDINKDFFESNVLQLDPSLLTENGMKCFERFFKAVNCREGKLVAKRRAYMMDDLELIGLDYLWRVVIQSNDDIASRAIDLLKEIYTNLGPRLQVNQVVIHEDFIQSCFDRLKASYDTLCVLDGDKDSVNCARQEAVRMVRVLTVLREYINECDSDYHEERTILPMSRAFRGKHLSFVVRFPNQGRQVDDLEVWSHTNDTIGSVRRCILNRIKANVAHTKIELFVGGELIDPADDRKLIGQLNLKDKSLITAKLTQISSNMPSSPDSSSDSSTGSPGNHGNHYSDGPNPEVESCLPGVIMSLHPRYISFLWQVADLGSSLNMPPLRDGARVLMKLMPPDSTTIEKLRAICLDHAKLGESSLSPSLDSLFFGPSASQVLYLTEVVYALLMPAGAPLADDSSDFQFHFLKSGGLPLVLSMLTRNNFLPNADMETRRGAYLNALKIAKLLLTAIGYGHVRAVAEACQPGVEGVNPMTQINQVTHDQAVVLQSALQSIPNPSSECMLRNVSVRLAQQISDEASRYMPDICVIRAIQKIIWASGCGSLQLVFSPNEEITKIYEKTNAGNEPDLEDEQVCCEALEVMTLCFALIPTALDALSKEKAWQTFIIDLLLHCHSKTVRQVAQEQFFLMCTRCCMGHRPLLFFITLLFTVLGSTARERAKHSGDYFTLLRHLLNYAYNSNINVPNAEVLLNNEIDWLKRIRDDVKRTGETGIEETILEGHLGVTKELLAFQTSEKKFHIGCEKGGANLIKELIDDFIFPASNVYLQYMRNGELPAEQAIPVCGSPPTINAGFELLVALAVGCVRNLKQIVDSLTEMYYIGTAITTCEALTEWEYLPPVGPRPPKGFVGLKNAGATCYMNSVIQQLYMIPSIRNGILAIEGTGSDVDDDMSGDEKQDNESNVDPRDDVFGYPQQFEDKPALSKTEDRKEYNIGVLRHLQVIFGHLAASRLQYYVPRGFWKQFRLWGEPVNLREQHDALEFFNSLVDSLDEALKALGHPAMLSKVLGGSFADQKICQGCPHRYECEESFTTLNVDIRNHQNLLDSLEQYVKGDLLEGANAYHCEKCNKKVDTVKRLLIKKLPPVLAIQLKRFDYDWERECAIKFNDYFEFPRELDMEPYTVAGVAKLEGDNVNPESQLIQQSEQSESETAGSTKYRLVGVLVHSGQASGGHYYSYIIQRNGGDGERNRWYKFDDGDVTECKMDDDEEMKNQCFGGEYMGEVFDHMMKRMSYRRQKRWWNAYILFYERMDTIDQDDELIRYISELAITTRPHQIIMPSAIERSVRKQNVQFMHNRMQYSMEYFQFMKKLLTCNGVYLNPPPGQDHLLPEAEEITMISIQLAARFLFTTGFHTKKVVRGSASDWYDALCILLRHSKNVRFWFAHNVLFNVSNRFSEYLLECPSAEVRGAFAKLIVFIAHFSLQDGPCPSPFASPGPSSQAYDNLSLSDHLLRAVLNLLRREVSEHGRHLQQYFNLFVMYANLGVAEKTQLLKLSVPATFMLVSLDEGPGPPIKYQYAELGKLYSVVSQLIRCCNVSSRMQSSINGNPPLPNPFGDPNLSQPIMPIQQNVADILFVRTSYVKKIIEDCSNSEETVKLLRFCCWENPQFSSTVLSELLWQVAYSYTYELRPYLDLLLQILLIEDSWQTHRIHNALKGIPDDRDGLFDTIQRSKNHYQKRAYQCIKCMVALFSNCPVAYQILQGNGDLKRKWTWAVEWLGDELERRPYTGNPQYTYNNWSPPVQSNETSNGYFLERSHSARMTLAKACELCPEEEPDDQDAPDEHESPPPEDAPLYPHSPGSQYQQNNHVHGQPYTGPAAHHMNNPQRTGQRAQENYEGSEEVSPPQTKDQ

As to `N#C/C(=C\c1cccc(Br)n1)C(=O)NC1(c2ccc(-c3cccc(C(=O)O)c3)cc2)CCCC1` [Compound 74, (E)-4′-(1-(3-(6-bromopyridin-2-yl)-2-cyanoacrylamido)cyclopentyl)-[1,1′-biphenyl]-3-carboxylic acid], the inhibition at 5 µM in experiment [1] and in experiment [4] was 50 to 75% throughout. The “reduction in tumor volume” value in experiment [2] was “approximately 50%”. Also, in experiment [3], the “PARP cleavage % Inhibition” value is “A (A is ≧75% inhibition)”.

As for `N#C/C(=C\c1cccc(Br)n1)C(=O)NC1(c2ccccc2)CCOC1` (stereo not shown) [Compound 80, (E)-3-(6-bromopyridin-2-yl)-2-cyano-N-(3-phenyltetrahydrofuran-3-yl)acrylamide], the inhibition at 5 µM in experiment [1] and in experiment [4] was below 25% in each case. Further, the “PARP cleavage % Inhibition” value in experiment [3] was “D (D is <25% inhibition)”.

In the case of `CC(=O)OCc1ccc(C2(NC(=O)/C(C#N)=C/c3cccc(Br)n3)CCCC2)cc1` [Compound 87, (E)-4-(1-(3-(6-bromopyridin-2-yl)-2-cyanoacrylamido)cyclopentyl)benzyl acetate], the inhibition at 5 µM in experiment [1] lay within 25 to 50%; in experiment [4], 50 to 75%. Also, the “PARP cleavage % Inhibition” value in experiment [3] was “A (A is ≧75% inhibition)”.

In the case of `Cn1cc(-c2cccc(/C=C(\C#N)C(=O)NC3(c4ccccc4)CCCC3)n2)cn1` [Compound 62, (E)-2-cyano-3-(6-(1-methyl-1H-pyrazol-4-yl)pyridin-2-yl)-N-(1-phenylcyclopentyl)acrylamide], the inhibition at 5 µM in experiment [1] was 50 to 75%; in experiment [4] it was at least 75%. The “PARP cleavage % Inhibition” value in experiment [3] is recorded as “A (A is ≧75% inhibition)”.

For `N#C/C(=C\c1cccc(Br)n1)C(=O)NC1(c2ccc(C#CC3(O)COC3)cc2)CCCC1` [Compound 75, (E)-3-(6-bromopyridin-2-yl)-2-cyano-N-(1-(4-((3-hydroxyoxetan-3-yl)ethynyl)phenyl)cyclopentyl)acrylamide], the values for the inhibition at 5 µM in experiment [1] and in experiment [4] were 50 to 75% and at least 75%, respectively. For the same compound, the “PARP cleavage % Inhibition” value in experiment [3] was “A (A is ≧75% inhibition)”.

Turning to `N#C/C(=C\c1cccc(Br)n1)C(=O)NC1(c2ccc(-c3cccnc3)cc2)CCCC1` [Compound 73, (E)-3-(6-bromopyridin-2-yl)-2-cyano-N-(1-(4-(pyridin-3-yl)phenyl)cyclopentyl)acrylamide], the inhibition at 5 µM in experiment [1] and in experiment [4] was at least 75% in each case. In addition, the “PARP cleavage % Inhibition” value in experiment [3] is given as “A (A is ≧75% inhibition)”.

As to `N#C/C(=C\c1cccc(C#CCN2CCOCC2)n1)C(=O)NC1(c2ccccc2)CCCC1` [Compound 55, (E)-2-cyano-3-(6-(3-morpholinoprop-1-yn-1-yl)pyridin-2-yl)-N-(1-phenylcyclopentyl)acrylamide], the inhibition at 5 µM in experiment [1] was 25 to 50%; in experiment [4] it was below 25%. Further, the “PARP cleavage % Inhibition” value in experiment [3] is “A (A is ≧75% inhibition)”.
